Assay results published in patent publication US6441195B1, “Substituted sulphonylamino(thio) carbonyl compounds” (Bayer Aktiengesellschaft, priority 1995, dated 2002).

What was measured:
Format in all cases: in vivo
weeds = test: Pre-emergence test (greenhouse), activity against weeds; settings: in words
Protocol: Solvent: 5 parts by weight of acetone
Emulsifier: 1 part by weight of alkylaryl polyglycol ether
(§1) To produce a suitable preparation of the active compound, 1 part by weight of active compound is mixed with the stated amount of solvent, the stated amount of emulsifier is added and the concentrate is diluted with water to the desired concentration.
(§2) Seeds of the test plants are sown in normal soil. After about 24 hours, the soil is watered with the preparation of active compound. Advantageously, the amount of water per unit area is kept constant. The active compound concentration in the preparation is not important, only the active compound appliation rate per unit area matters.
(§3) After three weeks, the degree of damage to the plants is rated in % damage in comparison to the development of the untreated control.
(§4) 0%=no action (like untreated control)

Sorghum = test: Pre-emergence test/Greenhouse, Sorghum; settings: after three weeks
Protocol: as §1, §2, §3, §4

Ambrosia = test: Pre-emergence test/Greenhouse, Ambrosia; settings: after three weeks
Protocol: as §1, §2, §3, §4

Soya beans = test: Pre-emergence test/Greenhouse, Soya beans; settings: in vivo
Protocol: as §1, §2, §3, §4

Solanum = test: Pre-emergence test/Greenhouse, Solanum; settings: after three weeks
Protocol: as §1, §2, §3, §4

Poa = test: Pre-emergence test/Greenhouse, Poa; settings: after three weeks
Protocol: as §1, §2, §3, §4

Lolium = test: Pre-emergence test/Greenhouse, Lolium; settings: after three weeks
Protocol: as §1, §2, §3, §4

Matricaria = test: Pre-emergence test/Greenhouse, Matricaria; settings: after three weeks
Protocol: as §1, §2, §3, §4

Maize = test: Pre-emergence test/Greenhouse, Maize; settings: in vivo
Protocol: as §1, §2, §3, §4

SMILES | activity against weeds (weeds) | degree of damage to the plants (% damage vs untreated control), Sorghum (Sorghum; 125 g of ai./ha) [%] | degree of damage to the plants (% damage vs untreated control), Soya beans (Soya beans) [%] | degree of damage to the plants (% damage vs untreated control), Solanum (Solanum; 125 g of ai./ha) [%] | degree of damage to the plants (% damage vs untreated control), Lolium (Lolium; 125 g of ai./ha) [%] | degree of damage to the plants (% damage vs untreated control), Matricaria (Matricaria; 125 g of ai./ha) [%] | degree of damage to the plants (% damage vs untreated control), Ambrosia (Ambrosia; 60 g of ai./ha) [%] | degree of damage to the plants (% damage vs untreated control), Solanum (Solanum; 60 g of ai./ha) [%] | degree of damage to the plants (% damage vs untreated control), Poa (Poa; 60 g of ai./ha) [%] | degree of damage to the plants (% damage vs untreated control), Lolium (Lolium; 60 g of ai./ha) [%] | degree of damage to the plants (% damage vs untreated control), Matricaria (Matricaria; 60 g of ai./ha) [%] | degree of damage to the plants (% damage vs untreated control), Maize (Maize) [%] | also measured
COC(=O)c1cccc(OC)c1S(=O)(=O)NC(=O)n1nc(OC(C)C)n(C2CC2)c1=O [Example 135] | very strong activity against weeds | 90 | 40 | 95 | 95 | 90 |  |  |  |  |  |  | degree of damage to the plants (% damage vs untreated control), Ambrosia (Ambrosia; 125 g of ai./ha): 90%; degree of damage to the plants (% damage vs untreated control), Poa (Poa; 125 g of ai./ha): 95%
CCCOc1nn(C(=O)NS(=O)(=O)c2c(C)cccc2C(=O)OC(C)C)c(=O)n1C [Example 17] | very strong activity against weeds |  | 0 |  |  |  |  |  |  |  |  |  | degree of damage to the plants (% damage vs untreated control), Sorghum (Sorghum; 30 g of ai./ha): 60%; degree of damage to the plants (% damage vs untreated control), Ambrosia (Ambrosia; 30 g of ai./ha): 95%; degree of damage to the plants (% damage vs untreated control), Solanum (Solanum; 30 g of ai./ha): 95%; degree of damage to the plants (% damage vs untreated control), Poa (Poa; 30 g of ai./ha): 95%; degree of damage to the plants (% damage vs untreated control), Lolium (Lolium; 30 g of ai./ha): 80%; degree of damage to the plants (% damage vs untreated control), Matricaria (Matricaria; 30 g of ai./ha): 95%
COC(=O)c1cccc(C)c1S(=O)(=O)NC(=O)n1nc(OCC2CC2)n(C2CC2)c1=O [Example 172] | very strong activity against weeds | 90 | 60 | 95 | 90 | 95 |  |  |  |  |  |  | degree of damage to the plants (% damage vs untreated control), Ambrosia (Ambrosia; 125 g of ai./ha): 90%; degree of damage to the plants (% damage vs untreated control), Poa (Poa; 125 g of ai./ha): 95%
COc1nn(C(=O)NS(=O)(=O)c2c(C)cccc2C(=O)OC(C)C)c(=O)n1C [Example 16] | very strong activity against weeds |  | 0 |  |  |  |  |  |  |  |  |  | degree of damage to the plants (% damage vs untreated control), Sorghum (Sorghum; 30 g of ai./ha): 90%; degree of damage to the plants (% damage vs untreated control), Ambrosia (Ambrosia; 30 g of ai./ha): 95%; degree of damage to the plants (% damage vs untreated control), Solanum (Solanum; 30 g of ai./ha): 95%; degree of damage to the plants (% damage vs untreated control), Poa (Poa; 30 g of ai./ha): 95%; degree of damage to the plants (% damage vs untreated control), Lolium (Lolium; 30 g of ai./ha): 95%; degree of damage to the plants (% damage vs untreated control), Matricaria (Matricaria; 30 g of ai./ha): 95%
CCOc1nn(C(=O)NS(=O)(=O)c2c(C)cccc2C(=O)OC(C)C)c(=O)n1CC [Example 43] | very strong activity against weeds |  | 10 |  |  |  | 95 | 95 | 95 | 95 | 95 |  | degree of damage to the plants (% damage vs untreated control), Sorghum (Sorghum; 60 g of ai./ha): 80%
COC(=O)c1cccc(C)c1S(=O)(=O)NC(=O)n1nc(OCC2CC2)n(C)c1=O [Example 167] | very strong activity against weeds |  | 30 |  |  |  | 90 | 90 | 95 | 80 | 95 |  | degree of damage to the plants (% damage vs untreated control), Sorghum (Sorghum; 60 g of ai./ha): 95%
CCCOC(=O)c1cccc(C)c1S(=O)(=O)NC(=O)n1nc(SCC)n(C)c1=O [Example 48] | very strong activity against weeds |  | 20 | 95 | 95 | 100 |  |  |  |  |  | 30 | degree of damage to the plants (% damage vs untreated control), Ambrosia (Ambrosia; 125 g of ai./ha): 95%; degree of damage to the plants (% damage vs untreated control), Poa (Poa; 125 g of ai./ha): 95%
COC(=O)c1cccc(C)c1S(=O)(=O)NC(=O)n1nc(SCCF)n(C)c1=O [Example 152] | very strong activity against weeds | 95 | 20 | 95 | 95 | 80 |  |  |  |  |  |  | degree of damage to the plants (% damage vs untreated control), Ambrosia (Ambrosia; 125 g of ai./ha): 95%; degree of damage to the plants (% damage vs untreated control), Poa (Poa; 125 g of ai./ha): 95%
COC(=O)c1cccc(C)c1S(=O)(=O)NC(=O)n1nc(SCC(F)(F)F)n(C)c1=O [Example 150] | very strong activity against weeds | 80 | 10 | 80 | 80 | 80 |  |  |  |  |  |  | degree of damage to the plants (% damage vs untreated control), Ambrosia (Ambrosia; 125 g of ai./ha): 70%; degree of damage to the plants (% damage vs untreated control), Poa (Poa; 125 g of ai./ha): 90%
Cc1csc(C(=O)OC(C)C)c1S(=O)(=O)NC(=O)n1nc(OC(C)C)n(C)c1=O [Example 84] | very strong activity against weeds | 90 | 30 | 100 | 95 | 95 |  |  |  |  |  | 5 | 
CCOc1nn(C(=O)NS(=O)(=O)c2c(C)csc2C(=O)OC(C)C)c(=O)n1C [Example 76] | very strong activity against weeds |  | 30 |  |  |  |  | 95 |  | 95 | 100 | 0 | degree of damage to the plants (% damage vs untreated control), Sorghum (Sorghum; 60 g of ai./ha): 95%
CCOc1nn(C(=O)NS(=O)(=O)c2c(C)csc2C(=O)OC(C)C)c(=O)n1CC [Example 86] | very strong activity against weeds | 70 | 40 | 95 | 80 | 100 |  |  |  |  |  | 10 | 
C=CCOc1nn(C(=O)NS(=O)(=O)c2c(C)cccc2C(=O)OC)c(=O)n1C1CC1 [Example 147] | very strong activity against weeds |  | 0 |  |  |  |  |  |  |  |  | 30 | degree of damage to the plants (% damage vs untreated control), Ambrosia (Ambrosia; 15 g of ai./ha): 70%; degree of damage to the plants (% damage vs untreated control), Solanum (Solanum; 15 g of ai./ha): 80%; degree of damage to the plants (% damage vs untreated control), Poa (Poa; 15 g of ai./ha): 90%; degree of damage to the plants (% damage vs untreated control), Lolium (Lolium; 15 g of ai./ha): 95%; degree of damage to the plants (% damage vs untreated control), Matricaria (Matricaria; 15 g of ai./ha): 70%
CCSc1nn(C(=O)NS(=O)(=O)c2c(C)cccc2C(=O)OC(C)C)c(=O)n1C [Example 42] | very strong activity against weeds |  | 10 |  |  |  | 95 | 95 | 95 | 95 | 95 | 10 | 
CCOn1c(CC)nn(C(=O)NS(=O)(=O)c2c(C)cccc2C(=O)OC)c1=O [Example 155] | very strong activity against weeds |  | 40 |  |  |  | 90 | 95 | 95 | 95 | 80 |  | degree of damage to the plants (% damage vs untreated control), Sorghum (Sorghum; 60 g of ai./ha): 95%
COC(=O)c1scc(C)c1S(=O)(=O)NC(=O)n1nc(OC(C)C)n(C)c1=O [Example 40] | very strong activity against weeds |  | 30 |  |  |  | 95 | 95 | 95 | 90 | 95 | 10 | 
CCCc1nn(C(=O)NS(=O)(=O)c2c(C)csc2C(=O)OC)c(=O)n1OC [Example 39] | very strong activity against weeds |  | 20 |  |  |  | 95 | 90 | 90 | 95 | 70 | 0 | 
